Data from patent US20130096105A1, “ArylSulfonamide Based Matrix Metalloprotease Inhibitors” (NOVARTIS AG, priority 2008, published 2013).

Key:
Collagenase-3 (MMP-13) = Collagenase-3 (MMP-13) (Homo sapiens, UniProt P45452); assay: Collagenase-3 (MMP-13) inhibitory activity, fluorogenic peptide substrate cleavage; format: biochemical; conditions: read-out: MMP13 IC50
Method: (§1) Gelatinase (MMP-2) inhibitory activities can be determined as follows: Stock solutions of substrate (MCA-Lys-Pro-Leu-Gly-Leu-Dpa-Ala-Arg-NH2) are prepared in DMSO at a concentration of 1.4 mM. Stock solutions of inhibitors (0.03 μM-3 mM) are also prepared in DMSO. The inhibitors are diluted into the assay solutions, and the controls use an equal volume of DMSO so that the final DMSO concentration from the inhibitor and substrate dilutions in all assays is 1.0%. Assays are performed in an assay buffer (100 mM sodium chloride, 10 μM ZnCl. Sub 2, 10 mM CaCl2, 100 mM Tris-Cl pH7.5, 0.05% Brij-35), containing 1.0% DMSO from the substrate and inhibitor additions. The substrate concentration used in the assays is 5 μM. The assays are carried out at 20-25° C. The fluorescence changes, as a result of substrate cleavage, are monitored using an excitation wavelength of 325 nm and an emission wavelength of 405 nm. The reaction mixtures are added in duplicate into appropriate wells of a 384-well assay plate. The reaction mixtures are preincubated with the inhibitors for 60 minutes The reactions are started by the addition of MMP substrate, and the fluorescence intensity changes are measured after 60 minutes The apparent enzyme activity in the presence of an inhibitor is then compared with that in the absence of any inhibitor to determine the inhibition effect of the inhibitor. These techniques are within the knowledge of one skilled in the art. The inhibition results are expressed as the inhibitor concentrations required to effect 50% inhibition (IC50) of the enzyme activity, as compared with the control (non-inhibited) reactions.
Collagenase-3 (MMP-13) inhibitory activity is determined as described above. Recombinant pro-collagenase-3 is activated with 1 mM APMA, and stored in the assay buffer after extensive dialysis in the assay buffer.

Gelatinase (MMP-2) = biological target: T1, Gelatinase (MMP-2) (Homo sapiens, UniProt P08253); assay: Gelatinase (MMP-2) inhibitory activity, fluorogenic peptide substrate cleavage; format: biochemical; conditions: read-out: MMP02 IC50
T1 sequence (P08253 110-660): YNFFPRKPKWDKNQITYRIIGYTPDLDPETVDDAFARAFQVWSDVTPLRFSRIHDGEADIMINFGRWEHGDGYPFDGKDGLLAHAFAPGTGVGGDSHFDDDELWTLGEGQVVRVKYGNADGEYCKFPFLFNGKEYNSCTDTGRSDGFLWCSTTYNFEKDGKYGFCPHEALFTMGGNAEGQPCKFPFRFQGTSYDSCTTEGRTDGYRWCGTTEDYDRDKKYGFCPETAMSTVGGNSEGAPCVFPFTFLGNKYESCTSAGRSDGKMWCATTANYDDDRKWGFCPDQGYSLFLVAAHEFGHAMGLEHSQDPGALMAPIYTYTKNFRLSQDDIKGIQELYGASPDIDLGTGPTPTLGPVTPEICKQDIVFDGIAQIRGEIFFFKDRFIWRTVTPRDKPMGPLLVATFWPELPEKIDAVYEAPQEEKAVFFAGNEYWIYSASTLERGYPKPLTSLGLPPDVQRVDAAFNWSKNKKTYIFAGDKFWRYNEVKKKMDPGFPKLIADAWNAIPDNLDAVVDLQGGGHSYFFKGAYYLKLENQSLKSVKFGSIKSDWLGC
Method: as §1

Structure (SMILES) | IC50 (Collagenase-3 (MMP-13)) [µM] | IC50 (Gelatinase (MMP-2)) [µM]
NS(=O)(=O)c1cc(C(=O)c2ccc(C#Cc3ccccc3)cc2)ccc1Cl [Example 32, 2-Chloro-5-(4-phenylethynyl-benzoyl)-benzenesulfonamide] | 10 | 8.3
NS(=O)(=O)c1cc(C(=O)c2ccc(C(=O)Nc3ccccc3)cc2)ccc1Cl [Example 34, 4-(4-Chloro-3-sulfamoyl-benzoyl)-N-phenyl-benzamide] | 4.71 | 2.51
NS(=O)(=O)c1cc(C(=O)c2ccc(C(=O)NCCc3ccccn3)cc2)ccc1Cl [Example 36, 4-(4-Chloro-3-sulfamoyl-benzoyl)-N-(2-pyridin-2-yl-ethyl)-benzamide] | 8.54 | 14.9
NS(=O)(=O)c1cc(C(=O)c2ccc(-c3ccsc3)cc2)ccc1Cl [Example 40, 2-Chloro-5-(4-thiophen-3-yl-benzoyl)-benzenesulfonamide] | 7.06 | > 30
NS(=O)(=O)c1cc(C(=O)c2ccc(-c3ccnc(Cl)c3)cc2)ccc1Cl [Example 43, 2-Chloro-5-[4-(2-chloro-pyridin-4-yl)-benzoyl]-benzenesulfonamide] | 0.38 | 0.3
N#Cc1ccc(C(=O)c2ccc(Cl)c(S(N)(=O)=O)c2)cc1 [Example 44, 2-Chloro-5-(4-cyano-benzoyl)-benzenesulfonamide] | 0.56 | 0.62
Cc1ccc(C(=O)c2ccc(Cl)c(S(N)(=O)=O)c2)c(Br)c1 [Example 45, 5-(2-Bromo-4-methyl-benzoyl)-2-chloro-benzenesulfonamide] | 0.08 | 0.053
NS(=O)(=O)c1cc(C(=O)c2ccccc2)ccc1Cl [Example 49, 5-Benzoyl-2-chloro-benzenesulfonamide] | 24.8 | > 30
NS(=O)(=O)c1cc(C(=O)c2ccc(F)cc2)ccc1Cl [Example 51, 2-Chloro-5-(4-fluoro-benzoyl)-benzenesulfonamide] | 18.7 | 14.6
NS(=O)(=O)c1cc(C(=O)c2ccc(C(=O)NCCc3ccccc3)cc2)ccc1Cl [Example 54, 4-(4-Chloro-3-sulfamoyl-benzoyl)-N-phenethyl-benzamide] | 27.1 | 23.4
CC(C)COc1ccc(C(=O)c2ccc(Cl)c(S(N)(=O)=O)c2)cc1 [Example 58, 2-Chloro-5-(4-isobutoxy-benzoyl)-benzenesulfonamide] | 24.2 | > 30
NS(=O)(=O)c1cc(C(=O)c2ccc(-c3ccccc3)cc2)ccc1Cl [Example 59, 5-(Biphenyl-4-carbonyl)-2-chloro-benzenesulfonamide] | 2.63 | 1.16
Cc1ccc(-c2ccc(C(=O)c3ccc(Cl)c(S(N)(=O)=O)c3)cc2)cc1 [Example 61, 2-Chloro-5-(4′-methyl-biphenyl-4-carbonyl)-benzenesulfonamide] | 1.02 | 1.1
NS(=O)(=O)c1cc(C(=O)c2ccc(-c3ccc(C(F)(F)F)cc3)cc2)ccc1Cl [Example 62, 2-Chloro-5-(4′-trifluoromethyl-biphenyl-4-carbonyl)-benzenesulfonamide] | 0.83 | 2.21
CCc1ccc(-c2ccc(C(=O)c3ccc(Cl)c(S(N)(=O)=O)c3)cc2)cc1 [Example 63, 2-Chloro-5-(4′-ethyl-biphenyl-4-carbonyl)-benzenesulfonamide] | 0.38 | 2.05
NS(=O)(=O)c1cc(C(=O)c2ccc(-c3ccc(Cl)cc3)cc2)ccc1Cl [Example 66, 2-Chloro-5-(4′-chloro-biphenyl-4-carbonyl)-benzenesulfonamide] | 0.63 | 0.72
NS(=O)(=O)c1cc(C(=O)c2ccc(-c3cccc(Br)c3)cc2)ccc1Cl [Example 67, 5-(3′-Bromo-biphenyl-4-carbonyl)-2-chloro-benzenesulfonamide] | 5.29 | 10.2
CC(=O)Nc1cccc(-c2ccc(C(=O)c3ccc(Cl)c(S(N)(=O)=O)c3)cc2)c1 [Example 70, N-[4′-(4-Chloro-3-sulfamoyl-benzoyl)-biphenyl-3-yl]-acetamide] | 4.01 | 11.4
NS(=O)(=O)c1cc(C(=O)c2ccc(-c3ccc(C(=O)O)cc3)cc2)ccc1Cl [Example 73, 4′-(4-Chloro-3-sulfamoyl-benzoyl)-biphenyl-4-carboxylic acid] | 0.61 | 0.98

The remaining molecules from weak to strong by IC50 (Collagenase-3 (MMP-13)), led by results:

IC50 (Collagenase-3 (MMP-13)) [µM] | IC50 (Gelatinase (MMP-2)) [µM] | Structure (SMILES)
27.5 | 25.5 | NS(=O)(=O)c1cc(C(=O)c2ccc(O)cc2)ccc1Cl [Example 55, 2-Chloro-5-(4-hydroxy-benzoyl)-benzenesulfonamide]
25.3 | > 30 | COc1ccc(C(=O)c2ccc(Cl)c(S(N)(=O)=O)c2)c(OC)c1 [Example 48, 2-Chloro-5-(2,4-dimethoxy-benzoyl)-benzenesulfonamide]
21.3 | 29.1 | CC(C)(C)NC(=O)c1ccc(C(=O)c2ccc(Cl)c(S(N)(=O)=O)c2)cc1 [Example 52, N-tert-Butyl-4-(4-chloro-3-sulfamoyl-benzoyl)-benzamide]
8.9 | 22.8 | NS(=O)(=O)c1cc(C(=O)c2ccc(C(=O)NCCCCc3ccccc3)cc2)ccc1Cl [Example 37, 4-(4-Chloro-3-sulfamoyl-benzoyl)-N-(4-phenyl-butyl)-benzamide]
7.55 | 4.05 | NS(=O)(=O)c1cc(C(=O)c2ccc(-c3ccccc3F)cc2)ccc1Cl [Example 64, 2-Chloro-5-(2′-fluoro-biphenyl-4-carbonyl)-benzenesulfonamide]
3.15 | 3.44 | NS(=O)(=O)c1cc(C(=O)c2ccc(-c3cccc([N+](=O)[O-])c3)cc2)ccc1Cl [Example 68, 2-Chloro-5-(3′-nitro-biphenyl-4-carbonyl)-benzenesulfonamide]
2.59 | > 30 | CCCNC(=O)c1ccc(C(=O)c2ccc(Cl)c(S(N)(=O)=O)c2)cc1 [Example 33, 4-(4-Chloro-3-sulfamoyl-benzoyl)-N-propyl-benzamide]
1.61 | 1.18 | NS(=O)(=O)c1cc(C(=O)c2ccc(-c3ccc(F)cc3)cc2)ccc1Cl [Example 65, 2-Chloro-5-(4′-fluoro-biphenyl-4-carbonyl)-benzenesulfonamide]
1.4 | 1.09 | O=C(c1ccc(-c2cccc(CO)c2)cc1)c1ccc(Cl)c(S(=O)(=O)O)c1 [Example 71, 2-Chloro-5-(3′-hydroxymethyl-biphenyl-4-carbonyl)-benzenesulfonic acid]
0.84 | 6.89 | NS(=O)(=O)c1cc(C(=O)c2ccc(C(=O)NCc3ccccc3)cc2)ccc1Cl [Example 35, N-Benzyl-4-(4-chloro-3-sulfamoyl-benzoyl)-benzamide]
0.24 | 0.93 | COC(=O)c1ccc(-c2ccc(C(=O)c3ccc(Cl)c(S(N)(=O)=O)c3)cc2)cc1 [Example 74, 4′-(4-Chloro-3-sulfamoyl-benzoyl)-biphenyl-4-carboxylic acid methyl ester]
0.21 | 0.15 | Cc1cc(Br)ccc1C(=O)c1ccc(Cl)c(S(N)(=O)=O)c1 [Example 46, 5-(4-Bromo-2-methyl-benzoyl)-2-chloro-benzenesulfonamide]
0.13 | 0.18 | NS(=O)(=O)c1cc(C(=O)c2ccc(-c3ccc(C=O)cc3)cc2)ccc1Cl [Example 72, 2-Chloro-5-(4′-formyl-biphenyl-4-carbonyl)-benzenesulfonamide]
